Calls of active or inactive are those of the source. No cut-off for these calls is given here.
Columns and labels:
[1] = system: Hs-578T; experiment: Growth inhibition of human Hs578T cells after 48 hrs by sulforhodamine B assay; format: functional
[2] = system: MDA-MB-435; experiment: Growth inhibition of human MDA-MB-435 cells after 48 hrs by sulforhodamine B assay; format: functional; conditions: MDA-MB-435, 48 h
[3] = system: SF-295; experiment: Growth inhibition of human SF295 cells after 48 hrs by sulforhodamine B assay; format: functional; conditions: SF-295, 48 h
[4] = system: HCT-116; experiment: Growth inhibition of human HCT116 cells after 48 hrs by sulforhodamine B assay; format: functional; conditions: HCT-116, 48 h
[5] = system: COLO 205; experiment: Growth inhibition of human COLO205 cells after 48 hrs by sulforhodamine B assay; format: functional; conditions: COLO 205, 48 h
[6] = system: A549; experiment: Cell cycle arrest in human A549 cells assessed as cell accumulation at S phase at 4 uM after 48 hrs by propidium iodide staining based flow cytometry (reference value: […]); format: functional
[7] = system: MDA-MB-231; experiment: Growth inhibition of human MDA-MB-231 cells after 48 hrs by sulforhodamine B assay; format: functional; conditions: MDA-MB-231, 48 h
[8] = system: ACHN; experiment: Cytotoxicity against human ACHN cells after 48 hrs by MTT assay; format: functional, cell-based
[9] = system: A549; experiment: Induction of apoptosis in human A549 cells assessed as increase in caspase3 activity using AFC-conjugated Ac-DEVD as substrate at 2 uM after 48 hrs by fluorescence assay relative to control; format: functional
[10] = system: TK-10; experiment: Growth inhibition of human TK10 cells after 48 hrs by sulforhodamine B assay; format: functional; conditions: TK-10, 48 h
[11] = system: U-251; experiment: Growth inhibition of human U251 cells after 48 hrs by sulforhodamine B assay; format: functional; conditions: U-251, 48 h
[12] = system: SNB-19; experiment: Growth inhibition of human SNB19 cells after 48 hrs by sulforhodamine B assay; format: functional; conditions: SNB-19, 48 h
[13] = system: HT-29; experiment: Cytotoxicity against human HT-29 cells after 48 hrs by MTT assay; format: functional, cell-based; conditions: HT-29, 48 h, read-out: IC50
[14] = molecular target: Tubulin (Homo sapiens) (UniProt P68371+Q9H4B7+P0DPH7+P68366+Q13509+Q71U36+P04350+Q3ZCM7+P07437+P68363+Q9BQE3+Q6PEY2+Q13885+Q9BVA1+Q9BUF5); experiment: Inhibition of tubulin polymerization in human A549 cells assessed as disrupted microtubule organization at 2 uM after 48 hrs by immunohistochemistry analysis; format: cell-based
[15] = system: NCI-H226; experiment: Growth inhibition of human NCI-H226 cells after 48 hrs by sulforhodamine B assay; format: functional; conditions: NCI-H226, 48 h
[16] = system: OVCAR-5; experiment: Growth inhibition of human OVCAR5 cells after 48 hrs by sulforhodamine B assay; format: functional; conditions: OVCAR-5, 48 h
[17] = system: SK-MEL-5; experiment: Growth inhibition of human SK-MEL-5 cells after 48 hrs by sulforhodamine B assay; format: functional; conditions: SK-MEL-5, 48 h
[18] = system: SK-MEL-28; experiment: Growth inhibition of human SK-MEL-28 cells after 48 hrs by sulforhodamine B assay; format: functional; conditions: SK-MEL-28, 48 h
[19] = system: A549; experiment: Induction of apoptosis in human A549 cells assessed as necrotic cells at 2 uM after 48 hrs by annexin-V FITC/propidium iodide staining based FACS analysis; format: functional
[20] = system: MOLT-4; experiment: Growth inhibition of human MOLT4 cells after 48 hrs by sulforhodamine B assay; format: functional; conditions: MOLT-4, 48 h
[21] = system: BT-549; experiment: Growth inhibition of human BT549 cells after 48 hrs by sulforhodamine B assay; format: functional; conditions: BT-549, 48 h
[22] = system: A549; experiment: Cell cycle arrest in human A549 cells assessed as cell accumulation at subG1 phase at 2 uM after 48 hrs by propidium iodide staining based flow cytometry (reference value: […]); format: functional
[23] = system: ACHN; experiment: Growth inhibition of human ACHN cells after 48 hrs by sulforhodamine B assay; format: functional
[24] = system: CAKI-1; experiment: Growth inhibition of human CAKI-1 cells after 48 hrs by sulforhodamine B assay; format: functional; conditions: CAKI-1, 48 h
[25] = system: SK-OV-3; experiment: Growth inhibition of human SKOV3 cells after 48 hrs by sulforhodamine B assay; format: functional; conditions: SK-OV-3, 48 h
[26] = system: T47D; experiment: Growth inhibition of human T47D cells after 48 hrs by sulforhodamine B assay; format: functional
[27] = system: K562; experiment: Growth inhibition of human K562 cells after 48 hrs by sulforhodamine B assay; format: functional; conditions: K562, 48 h
[28] = Inhibition of tubulin polymerization after 1 hr by fluorescence assay
[29] = system: UACC-257; experiment: Growth inhibition of human UACC257 cells after 48 hrs by sulforhodamine B assay; format: functional; conditions: UACC-257, 48 h
[30] = system: DU-145; experiment: Growth inhibition of human DU145 cells after 48 hrs by sulforhodamine B assay; format: functional; conditions: DU-145, 48 h
[31] = system: A549; experiment: Induction of apoptosis in human A549 cells assessed as late apoptotic cells at 2 uM after 48 hrs by annexin-V FITC/propidium iodide staining based FACS analysis; format: functional
[32] = system: 786-0; experiment: Growth inhibition of human 786-0 cells after 48 hrs by sulforhodamine B assay; format: functional; conditions: 786-0, 48 h
[33] = system: MCF7; experiment: cells; conditions: Homo sapiens, MCF7, 48 h
Description: Cytotoxicity against human MCF7 cells after 48 hrs by MTT assay

[34] = system: M14; experiment: Growth inhibition of human M14 cells after 48 hrs by sulforhodamine B assay; format: functional; conditions: M14, 48 h
[35] = system: A549; experiment: Cell cycle arrest in human A549 cells assessed as cell accumulation at G0/G1 phase at 2 uM after 48 hrs by propidium iodide staining based flow cytometry (reference value: 70.15%); format: functional
[36] = system: A549; experiment: Cell cycle arrest in human A549 cells assessed as cell accumulation at G0/G1 phase at 4 uM after 48 hrs by propidium iodide staining based flow cytometry (reference value: 70.15%); format: functional
[37] = system: KM12; experiment: Growth inhibition of human KM12 cells after 48 hrs by sulforhodamine B assay; format: functional; conditions: KM12, 48 h
[38] = system: CCRF-CEM; experiment: Growth inhibition of human CCRF-CEM cells after 48 hrs by sulforhodamine B assay; format: functional
[39] = system: A549; experiment: Cell cycle arrest in human A549 cells assessed as cell accumulation at G2/M phase at 4 uM after 48 hrs by propidium iodide staining based flow cytometry (reference value: 23.75%); format: functional
[40] = system: HCC 2998; experiment: Growth inhibition of human HCC2998 cells after 48 hrs by sulforhodamine B assay; format: functional; conditions: HCC 2998, 48 h
[41] = system: HT-29; experiment: Growth inhibition of human HT-29 cells after 48 hrs by sulforhodamine B assay; format: functional; conditions: HT-29, 48 h
[42] = system: SF-539; experiment: Growth inhibition of human SF539 cells after 48 hrs by sulforhodamine B assay; format: functional; conditions: SF-539, 48 h
[43] = system: UO-31; experiment: Growth inhibition of human UO31 cells after 48 hrs by sulforhodamine B assay; format: functional; conditions: UO-31, 48 h
[44] = system: SR; experiment: Growth inhibition of human SR cells after 48 hrs by sulforhodamine B assay; format: functional
[45] = system: OVCAR-4; experiment: Growth inhibition of human OVCAR4 cells after 48 hrs by sulforhodamine B assay; format: functional; conditions: OVCAR-4, 48 h
[46] = system: SW-620; experiment: Growth inhibition of human SW620 cells after 48 hrs by sulforhodamine B assay; format: functional; conditions: SW-620, 48 h

COc1ccc(/C=C/C(=O)c2cc(OC)c(OC)c(OC)c2)cc1OCC(=O)Nc1nc2ccc(OC(F)(F)F)cc2s1
GI50 [1]: 3.08 µM | GI50 [2]: 0.3 µM | GI50 [3]: 2.21 µM | GI50 [4]: 1.43 µM | GI50 [5]: 6.37 µM | Activity [6]: 4.95% | GI50 [7]: 2.01 µM | IC50 [8]: 1.73 µM | fold change (FC) [9]: 4 | GI50 [10]: 2.08 µM | GI50 [11]: 0.7 µM | GI50 [12]: 1.58 µM | IC50 [13]: 1.1 µM | inhibition [14]: Active | GI50 [15]: 3.35 µM | GI50 [16]: 4.76 µM | GI50 [17]: 2.03 µM | GI50 [18]: 3.31 µM | Activity [19]: 6.2% | GI50 [20]: 2.89 µM | GI50 [21]: 2.71 µM | Activity [22]: 4.5% | GI50 [23]: 1.62 µM | GI50 [24]: 2.2 µM | GI50 [25]: 2.16 µM | GI50 [26]: 3.08 µM | GI50 [27]: 0.43 µM | IC50 [28]: 5.2 µM | GI50 [29]: 8.08 µM | GI50 [30]: 1.56 µM | Activity [31]: 74.9% | GI50 [32]: 2.26 µM | IC50 [33]: 3.3 µM | GI50 [34]: 1.72 µM | Activity [35]: 8.51% | Activity [36]: 8.68% | GI50 [37]: 1.51 µM | GI50 [38]: 2.5 µM | Activity [39]: 83.21% | GI50 [40]: 6.18 µM | GI50 [41]: 3.66 µM | GI50 [42]: 0.3 µM | GI50 [43]: 1.61 µM | GI50 [44]: 0.39 µM | GI50 [45]: 2.07 µM | GI50 [46]: 1.08 µM

Reference: ChEMBL document CHEMBL2034833, “Synthesis of chalcone-amidobenzothiazole conjugates as antimitotic and apoptotic inducing agents” (Bioorg Med Chem, 2012)
